Data published in ChEMBL document CHEMBL5532637, “Antimicrobial activity of natural and semi-synthetic carbazole alkaloids” (Eur J Med Chem, 2023).
Values after ≈ are worked out from the molar mass of the structure shown.

Experiments:
Klebsiella pneumoniae [1] = assay: Antibacterial activity against colistin resistant Klebsiella pneumoniae assessed as inhibition of bacterial growth incubated for 24 hrs; assay type: functional
Staphylococcus aureus [2] = assay: Antibacterial activity against methicillin-resistant Staphylococcus aureus assessed as inhibition of bacterial growth incubated for 12 to 36 hrs by broth dilution method; assay type: functional; details: time 12-36 hrs
Enterococcus faecalis = assay: Antibacterial activity against multidrug-resistant Enterococcus faecalis assessed as inhibition of bacterial growth incubated for 12 to 36 hrs by broth dilution method; assay type: functional; details: time 12-36 hrs
Staphylococcus aureus [3] = assay: Antibacterial activity against Staphylococcus aureus ATCC 6538 assessed as inhibition of bacterial growth incubated for 24 hrs by disk diffusion method; assay type: functional
Bacillus subtilis [4] = assay: Antibacterial activity against Bacillus subtilis NRRL B-14819 assessed as inhibition of bacterial growth incubated for 24 hrs by disk diffusion method; assay type: functional
Micrococcus luteus = assay: Antibacterial activity against Micrococcus luteus ATCC 21881 assessed as inhibition of bacterial growth incubated for 24 hrs by disk diffusion method; assay type: functional
Escherichia coli [5] = assay: Antibacterial activity against Escherichia coli ATCC 25922 assessed as inhibition of bacterial growth incubated for 24 hrs by disk diffusion method; assay type: functional
Candida albicans [6] = assay: Antifungal activity against Candida albicans assessed as inhibition of fungal growth incubated for 1 hr by serial plate dilution method; assay type: functional
Staphylococcus aureus [7] = assay: Antibacterial activity against Staphylococcus aureus assessed as inhibition of bacterial growth by two-fold serial dilution assay; assay type: functional
Staphylococcus aureus [8] = assay: Antibacterial activity against Staphylococcus aureus ATCC 29213 assessed as inhibition of bacterial growth by two-fold serial dilution assay; assay type: functional
Staphylococcus aureus [9] = assay: Antibacterial activity against methicillin-resistant Staphylococcus aureus assessed as inhibition of bacterial growth by two-fold serial dilution assay; assay type: functional
Staphylococcus aureus [10] = assay: Antibacterial activity against Staphylococcus aureus ATCC 25923 assessed as inhibition of bacterial growth by two-fold serial dilution assay; assay type: functional
Staphylococcus aureus [11] = assay: Antibacterial activity against Staphylococcus aureus ATCC 25923 assessed as inhibition of bacterial growth incubated for 24 hrs by broth dilution assay; assay type: functional
Staphylococcus aureus [12] = assay: Antibacterial activity against methicillin-resistant Staphylococcus aureus clinical isolate assessed as inhibition of bacterial growth incubated for 24 hrs by broth dilution assay; assay type: functional
Staphylococcus aureus [13] = assay: Antimicrobial activity against Staphylococcus aureus ATCC 6538 assessed as inhibition of microbial growth by microbroth dilution method; assay type: functional
Klebsiella pneumoniae [14] = assay: Antimicrobial activity against Klebsiella pneumoniae ATCC 4352 assessed as inhibition of microbial growth by microbroth dilution method; assay type: functional
Candida albicans [15] = assay: Antimicrobial activity against Candida albicans ATCC 10231 assessed as inhibition of microbial growth by microbroth dilution method; assay type: functional
Escherichia coli [16] = assay: Antibacterial activity against Escherichia coli assessed as inhibition of bacterial growth incubated for 18 to 24 hrs by broth macrodilution assay; assay type: functional; details: time 18-24 hrs
Pseudomonas aeruginosa = assay: Antibacterial activity against Pseudomonas aeruginosa assessed as inhibition of bacterial growth incubated for 18 to 24 hrs by broth macrodilution assay; assay type: functional; details: time 18-24 hrs
Salmonella typhi = assay: Antibacterial activity against Salmonella typhi assessed as inhibition of bacterial growth incubated for 18 to 24 hrs by broth macrodilution assay; assay type: functional, Salmonella enterica subsp. enterica serovar Typhi; details: Salmonella enterica; time 18-24 hrs
Candida albicans [17] = assay: Antifungal activity against Candida albicans ATCC 10231 assessed as inhibition of fungal growth incubated for 24 hrs by broth dilution method; assay type: functional
Nakaseomyces glabratus = assay: Antifungal activity against Candida glabrata DSM 11226 assessed as inhibition of fungal growth incubated for 24 hrs by broth dilution method; assay type: functional
Pichia kudriavzevii = assay: Antifungal activity against Candida krusei DSM 6128 assessed as inhibition of fungal growth incubated for 24 hrs by broth dilution method; assay type: functional
Staphylococcus aureus [18] = assay: Antibacterial activity against methicillin-resistant Staphylococcus aureus N315 assessed as inhibition of bacterial growth by micro broth dilution method; assay type: functional
Escherichia coli [19] = assay: Antibacterial activity against Escherichia coli assessed as inhibition of bacterial growth by micro broth dilution method; assay type: functional
Staphylococcus aureus [20] = assay: Antimicrobial activity against Staphylococcus aureus assessed as zone of inhibition at 40 ug/ml; assay type: functional; details: read-out: IZ
Bacillus subtilis [21] = assay: Antimicrobial activity against Bacillus subtilis assessed as zone of inhibition at 40 ug/ml; assay type: functional; details: read-out: IZ
Klebsiella pneumoniae [22] = assay: Antimicrobial activity against Klebsiella pneumoniae assessed as zone of inhibition at 40 ug/ml; assay type: functional; details: read-out: IZ
Escherichia coli [23] = assay: Antimicrobial activity against Escherichia coli assessed as zone of inhibition at 40 ug/ml; assay type: functional; details: read-out: IZ
Aspergillus niger = assay: Antimicrobial activity against Aspergillus niger assessed as zone of inhibition at 50 ug/ml; assay type: functional; details: read-out: IZ
Aspergillus flavus = assay: Antimicrobial activity against Aspergillus flavus assessed as zone of inhibition at 50 ug/ml; assay type: functional; details: read-out: IZ
Fusarium oxysporum = assay: Antimicrobial activity against Fusarium oxysporum assessed as zone of inhibition at 50 ug/ml; assay type: functional; details: read-out: IZ
Staphylococcus aureus [24] = assay: Antibacterial activity against Staphylococcus aureus ATCC 6538 assessed as inhibition of bacterial growth incubated for 24 hrs by alamar blue assay; assay type: functional
[25] = system: Staphylococcus epidermidis; assay: Antibacterial activity against Staphylococcus epidermidis ATCC 12228 assessed as inhibition of bacterial growth incubated for 24 hrs by alamar blue assay; assay type: functional

Structure (SMILES): CCn1c2ccccc2c2c3[nH]c(C(=O)NNC(=O)c4ccc([N+](=O)[O-])cc4)cc3ccc21
- MIC (Klebsiella pneumoniae [1]): 64 µg/mL (≈ 145 µM)

Structure (SMILES): Oc1cc(-c2ccc3c(c2)[nH]c2ccccc23)cc(O)c1O
- MIC (Staphylococcus aureus [2]): 3.13 µg/mL (≈ 10.7 µM)
- MIC (Enterococcus faecalis): 6.25 µg/mL (≈ 21.5 µM)

Structure (SMILES): CC1=NN(c2ccccc2)C(=O)/C1=N\NNC(=O)Cn1c2ccccc2c2ccccc21
- MIC (Staphylococcus aureus [3]): 1.1 µg/mL (≈ 2.59 µM)
- MIC (Bacillus subtilis [4]): 1.2 µg/mL (≈ 2.83 µM)
- MIC (Micrococcus luteus): 3.1 µg/mL (≈ 7.3 µM)
- MIC (Escherichia coli [5]): 6.4 µg/mL (≈ 15.1 µM)
- MIC (Candida albicans [6]): 9.6 µg/mL (≈ 22.6 µM)

Structure (SMILES): Sc1nnc(Cn2c3ccc(Br)cc3c3cc(Br)ccc32)o1
- MIC (Staphylococcus aureus [7]): 0.6 µM (≈ 0.263 µg/mL)
- MIC (Staphylococcus aureus [8]): 0.6 µM (≈ 0.263 µg/mL)
- MIC (Staphylococcus aureus [9]): 0.6 µM (≈ 0.263 µg/mL)
- MIC (Staphylococcus aureus [10]): 0.6 µM (≈ 0.263 µg/mL)

Structure (SMILES): CCn1c2ccccc2c2c(Cl)c(N/N=C(/C(C)=O)N3CCN(CCO)CC3)ccc21
- MIC (Staphylococcus aureus [11]): 3.12 µg/mL (≈ 7.07 µM)
- MIC (Staphylococcus aureus [12]): 1.56 µg/mL (≈ 3.53 µM)

Structure (SMILES): Oc1c(/C=N/c2ccc(Cl)cc2Cl)ccc2[nH]c3ccccc3c12
- MIC (Staphylococcus aureus [13]): 1.4 µg/mL
- MIC (Klebsiella pneumoniae [14]): 1.4 µg/mL
- MIC (Candida albicans [15]): 1.4 µg/mL

Structure (SMILES): CCOC(=O)C1=C(C)NC2=C(C(=O)CC(C)(C)C2)C1c1ccc2c(c1)c1ccccc1n2CC (centres undefined)
- MIC (Escherichia coli [16]): 16 µg/mL (≈ 35 µM)
- MIC (Pseudomonas aeruginosa): 16 µg/mL (≈ 35 µM)
- MIC (Salmonella typhi): 16 µg/mL (≈ 35 µM)

Structure (SMILES): CNc1nc(Nc2ccc3[nH]c4ccc(Nc5cnc(N)c(NC)n5)cc4c3c2)cnc1N
- MIC (Candida albicans [17]): 250 µg/mL (≈ 566 µM)
- MIC (Nakaseomyces glabratus): 62.5 µg/mL (≈ 142 µM)
- MIC (Pichia kudriavzevii): 31.2 µg/mL (≈ 70.8 µM)

Structure (SMILES): Cn1c(=O)c2ncn(CC(O)Cn3c4ccccc4c4cc(Br)ccc43)c2n(C)c1=O (centres undefined)
- MIC (Staphylococcus aureus [18]): 8 µM (≈ 3.86 µg/mL)
- MIC (Escherichia coli [19]): 33 µM (≈ 15.9 µg/mL)

Structure (SMILES): CCn1c2ccccc2c2cc(/C=C/C(=O)c3cc(Cl)cc(Cl)c3OCc3cn(Cc4ccccc4)nn3)ccc21
- zone of inhibition at 40 µg/mL (Staphylococcus aureus [20]): 21.4 mm
- zone of inhibition at 40 µg/mL (Bacillus subtilis [21]): 24.2 mm
- zone of inhibition at 40 µg/mL (Klebsiella pneumoniae [22]): 23.6 mm
- zone of inhibition at 40 µg/mL (Escherichia coli [23]): 26.4 mm
- zone of inhibition at 50 µg/mL (Aspergillus niger): 15 mm
- zone of inhibition at 50 µg/mL (Aspergillus flavus): 12.9 mm
- zone of inhibition at 50 µg/mL (Fusarium oxysporum): 15.3 mm

Structure (SMILES): COc1ccccc1OCCNCC(O)COc1cccc2[nH]c3ccccc3c12 (centres undefined) [CARVEDILOL]
- MIC (Staphylococcus aureus [24]): 40 µg/mL (≈ 98.4 µM)
- MIC [25]: 40 µg/mL (≈ 98.4 µM)
